Experimental data reported in patent US7105534B2, “Imidazo[1,2-α]pyridine ether compounds as ion channel modulators” (Cardiome Pharma Corp., priority 2000, dated 2006).
Where a name gives a salt, the structure may show the parent alone.

Key:
Kv1.5 = biological target: T1, Kv1.5 (Homo sapiens, UniProt P22460); experiment: Patch-clamp inhibition of cloned ion channel current in transfected HEK cells: Kv1.5; format: cell-based; conditions: steady-state current, -80 mV to +60 mV
T1 construct: expressed in transfected cells; host or cells: HEK cells, transient transfection, vector pCDNA3
Protocol: (§1) The relevant cloned ion channels (e.g. cardiac hH1, Kv1.4, Kv1.5, Kv4.2, Kv2.1, HERG etc.) are studied by transient transfection into HEK cells using the mammalian expression vector pCDNA3. Transfections for each channel type are carried out separately to allow individual study of the ion channel of interest. Cells expressing channel protein are detected by cotransfecting cells with the vector pHook-1 (Invitrogen, San Diego, Calif., USA). […] Equal concentrations of individual channel and pHook DNA are incubated with 10× concentration of lipofectAce in Modified Eagle's Medium (MEM, Canadian Life Technologies) and incubated with parent HEK cells plated on 25 mm culture dishes. After 3–4 hours the solution is replaced with a standard culture medium plus 20% fetal bovine serum and 1% antimycotic. Transfected cells are maintained at 37C in an air/5% CO2 incubator in 25 mm Petri dishes plated on glass coverslips for 24–48 hours to allow channel expression to occur. 20 min prior to experiments, cells are treated with beads coated with phOX. After 15 min, excess beads are […] off with cell culture medium and cells which had beads stuck to them are used for electrophysiological tests.
(§2) For whole-cell recording the control pipette filling solution contained (in mM): KCl, 130; EGTA, 5; MgCl2, 1; HEPES, 10; Na2ATP, 4; GTP, 0.1; and is adjusted to pH 7.2 with KOH. The control bath solution contained (in mM): NaCl, 135; KCI, 5; sodium acetate, 2.8; MgCl2, 1; HEPES, 10; CaCl2, 1; and is adjusted to pH 7.4 with NaOH. The test ion channel modulating compound is dissolved to 10 mM stock solutions in water and used at concentrations between 0.5 and 100 μM.
(§3) Coverslips containing cells are removed from the incubator before experiments and placed in a superfusion chamber (volume 250 μl) containing the control bath solution at 22C to 23C. All recordings are made via the variations of the patch-clamp technique, using an Axopatch 200A amplifier (Axon Instruments, CA). Patch electrodes are pulled from thin-walled borosilicate glass (World Precision Instruments; FL) on a horizontal micropipette puller, fire-polished, and filled with appropriate solutions. Electrodes had resistances of […] when filled with control filling solution. Analog capacity compensation is used in all whole cell measurements. In some experiments, leak subtraction is applied to data. Membrane potentials have not been corrected for any junctional potentials that arose between the pipette and bath solution. Data are filtered at 5 to 10 kHz before digitization and stored on a microcomputer for later analysis using the pClamp6 software (Axon Instruments, Foster City, Calif.). Due to the high level of expression of channel cDNA's in HEK cells, there is no need for signal averaging. The average cell capacitance is quite small, and the absence of ionic current at negative membrane potentials allowed faithful leak subtraction of data.
(§4) The concentration-response curves for changes in peak and steady-state current produced by the test compound are computer-fitted to the Hill equation: f=1−1/[1+([…])^n] [1]
(§5) where f is the fractional current (f=Idrug/Icontrol) at drug concentration [D]; IC50 is the concentration producing half-maximal inhibition and n is the Hill coefficient.
(§6) Compounds of the present invention may be evaluated by this method. […] Block is determined from the decrease in peak hH1 Na^+ current, or in steady-state Kv1.5 and integrated Kv4.2 current in the presence of drug. To record Na^+ current, cells are depolarized from the holding potential of −100 mV to a voltage of −30 mV for 10 ms to fully open and inactivate the channel. To record Kv1.5 and Kv4.2 current, cells are depolarized from the holding potential of −80 mV to a voltage of +60 mV for 200 ms to fully open the channel. Currents are recorded in the steady-state at a range of drug concentrations during stimulation every 4 s. […]

HERG = biological target: T2, HERG (Homo sapiens, UniProt Q12809); experiment: Patch-clamp inhibition of cloned ion channel current in transfected HEK cells: HERG; format: cell-based; conditions: whole-cell patch clamp
T2 construct: expressed in transfected cells; host or cells: HEK cells, transient transfection, vector pCDNA3
Protocol: as §1, §2, §3, §4, §5, §6

T2 sequence (Q12809 whole entry): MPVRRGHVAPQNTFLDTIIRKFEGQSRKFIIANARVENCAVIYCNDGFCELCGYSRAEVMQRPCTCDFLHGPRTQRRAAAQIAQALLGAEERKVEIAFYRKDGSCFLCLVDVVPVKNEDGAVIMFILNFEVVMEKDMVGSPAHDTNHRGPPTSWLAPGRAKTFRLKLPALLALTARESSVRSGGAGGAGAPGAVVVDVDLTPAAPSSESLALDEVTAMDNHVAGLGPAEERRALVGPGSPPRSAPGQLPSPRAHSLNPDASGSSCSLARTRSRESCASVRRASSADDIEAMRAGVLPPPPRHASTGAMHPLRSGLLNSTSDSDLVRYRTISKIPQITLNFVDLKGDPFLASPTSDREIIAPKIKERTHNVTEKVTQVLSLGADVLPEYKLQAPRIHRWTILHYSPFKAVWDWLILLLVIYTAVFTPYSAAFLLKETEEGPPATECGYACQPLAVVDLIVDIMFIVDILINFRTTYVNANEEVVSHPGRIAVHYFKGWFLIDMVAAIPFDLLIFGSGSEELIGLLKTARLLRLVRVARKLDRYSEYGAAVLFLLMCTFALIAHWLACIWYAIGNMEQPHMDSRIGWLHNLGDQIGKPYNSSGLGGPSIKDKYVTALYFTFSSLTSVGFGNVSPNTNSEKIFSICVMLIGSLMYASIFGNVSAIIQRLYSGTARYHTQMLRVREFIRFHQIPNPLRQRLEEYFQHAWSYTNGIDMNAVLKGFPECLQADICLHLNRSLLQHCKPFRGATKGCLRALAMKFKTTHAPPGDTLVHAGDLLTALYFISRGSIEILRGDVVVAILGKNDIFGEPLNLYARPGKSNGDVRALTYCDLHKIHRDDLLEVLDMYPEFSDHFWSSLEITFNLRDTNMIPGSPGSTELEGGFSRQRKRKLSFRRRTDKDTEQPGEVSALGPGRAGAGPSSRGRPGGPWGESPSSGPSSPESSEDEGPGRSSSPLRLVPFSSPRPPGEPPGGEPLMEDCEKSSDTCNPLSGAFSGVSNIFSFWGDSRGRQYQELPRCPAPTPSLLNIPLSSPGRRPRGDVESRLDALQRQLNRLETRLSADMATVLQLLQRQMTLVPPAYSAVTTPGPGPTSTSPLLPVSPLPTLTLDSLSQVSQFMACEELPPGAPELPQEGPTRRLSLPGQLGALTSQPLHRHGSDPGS
T1 sequence (P22460 whole entry): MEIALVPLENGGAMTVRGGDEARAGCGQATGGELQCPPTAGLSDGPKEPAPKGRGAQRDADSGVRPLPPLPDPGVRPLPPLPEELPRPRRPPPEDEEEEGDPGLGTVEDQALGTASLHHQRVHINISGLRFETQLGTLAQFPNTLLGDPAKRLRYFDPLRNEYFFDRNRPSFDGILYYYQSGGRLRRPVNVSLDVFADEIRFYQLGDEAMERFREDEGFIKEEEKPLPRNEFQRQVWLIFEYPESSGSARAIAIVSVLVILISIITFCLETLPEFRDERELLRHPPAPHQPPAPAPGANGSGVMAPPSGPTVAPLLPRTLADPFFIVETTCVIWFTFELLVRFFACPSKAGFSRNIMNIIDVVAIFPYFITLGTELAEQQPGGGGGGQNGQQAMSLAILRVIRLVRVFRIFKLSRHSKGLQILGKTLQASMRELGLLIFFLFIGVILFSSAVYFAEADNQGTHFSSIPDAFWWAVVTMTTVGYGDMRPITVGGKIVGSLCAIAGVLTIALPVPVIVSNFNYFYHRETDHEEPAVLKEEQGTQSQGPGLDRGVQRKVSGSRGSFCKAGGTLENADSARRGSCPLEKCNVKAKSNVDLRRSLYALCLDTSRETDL

Row | Structure (SMILES) | IC50 (Kv1.5) | IC50 (HERG)
1 | Cc1cn2ccc(C)c(OCCCc3ccc(Cl)cc3Cl)c2n1 [Compound 14, 8-[3-(2,4-DICHLOROPHENYL)PROPOXY]-2,7-DIMETHYLIMIDAZO[1,2-α]PYRIDINE MONOHYDROCHLORIDE] | 700 nM | –
2 | Cc1cn2ccc(C)c(OCC3(c4ccccc4)CC3)c2n1 [Compound 17, 2,7-DIMETHYL-8-[(1-PHENYL-CYCLOPROPYL)METHOXY]IMIDAZO[1,2-α]PYRIDINE MONOHYDROCHLORIDE] | 4000 nM | 1000 nM
3 | Cc1cn2ccc(C)c(OCCCc3ccccc3)c2n1 [Compound 18, 2,7-DIMETHYL-8-[3-PHENYLPROPRXY]IMIDAZO[1,2-α]PYRIDINE MONOHYDROCHLORIDE] | 3000 nM | 1000 nM
4 | Cc1nc2c(OCCCc3ccc(Cl)cc3Cl)cccn2c1Br [Compound 19, 3-BROMO-8-[3-(2,4-DICHLOROPHENYL)PROPOXY]-2-METHYLIMIDAZO[1,2-α]PYRIDINE MONOHYDROCHLORIDE] | 300 nM | 400 nM
5 | CC(C)c1cn2cccc(OCCCc3ccc(Cl)cc3Cl)c2n1 [Compound 20, 8-[3-(2,4-DICHLOROPHENYL)PROPOXY]-2-ISOPROPYLIMIDAZO[1,2-α]PYRIDINE MONOHYDROCHLORIDE] | 200 nM | 100 nM
6 | Cc1nc2c(OCCCc3ccc(Cl)cc3Cl)cccn2c1CO [Compound 21, {8-[3-(2,4-DICHLOROPHENYL)PROPOXY]-2-METHYLIMIDAZO[1,2-α]PYRIDIN-3-yl}METHANOL MMONOHYDROCHLORIDE] | 2000 nM | 60 nM
7 | Cc1nc2c(OCCCc3ccc(Cl)cc3Cl)cccn2c1Cl [Compound 22, 3-CHLORO-8-[3-(2,4-DICHLOROPHENYL)PROPOXY]-2-METHYLI[1,2-α]PYRIDINE MMONOHYDROCHLORIDE] | 400 nM | 1000 nM
8 | FC(F)(F)c1cn2cccc(OCC3(c4ccccc4)CC3)c2n1 [Compound 23, 8-[(1-PHENYLCYCLOPROPYL)METHOXY]-2-(TRIFLUOROMETHYL)IMIDAZO[1,2-α]PYRIDINE MMONOHYDROCHLORIDE] | 3000 nM | 9000 nM
9 | CNCc1c(C)nc2c(OCCCc3ccc(Cl)cc3Cl)cccn12 [Compound 24, 8-[3-(2,4-DICHLOROPHENYL)PROPOXY]-3-[(METHYLAMINO)METHYL]-2-METHYL-IMIDAZO[1,2-α]PYRIDINE DIHYDROCHLORIDE] | 2000 nM | 200 nM
10 | Cc1nc2c(OCCCc3ccc(Cl)cc3Cl)cccn2c1CN(C)C [Compound 25, 8-[3-(2,4-DICHLOROPHENYL)PROPOXY]-3-[(DIMETHYLAMINO)METHYL]-2-METHYLIMIDAZO[1,2-α]PYRIDINE DIHYDROCHLORIDE] | 8000 nM | 100 nM
11 | Cc1nc2c(OCCCc3ccc(Cl)cc3Cl)cccn2c1N [Compound 26, 3-AMINO-8-[3-(2,4-DICHLOROPHENYL)PROPOXY]-2-METHYLIMIDAZO[1,2-α]PYRIDINE DIHYDROCHLORIDE] | 800 nM | 200 nM
12 | Clc1ccc(CCCOc2cccn3c4c(nc23)CCCC4)c(Cl)c1 [Compound 27, 4-[3-(2,4-DICHLOROPHENYL)PROPOXY]-6,7,8,9-TETRAHYDROBENZO[4,5]IMIDAZO-[1,2-α]PYRDINE MMONOHYDROCHLORIDE] | 600 nM | 100 nM
13 | Cc1nc2c(OCC3(c4ccccc4)CC3)cccn2c1Br [Compound 28, 3-BROMO-2-METHYL-8-[(1-PHENYL-CYCLOPROPYL)METHOXY]IMIDAZO[1,2-α]PYRIDINE MMONOHYDROCHLORIDE] | 800 nM | 2000 nM
14 | Clc1ccc(CCCOc2cccn3c4c(nc23)CCC4)c(Cl)c1 [Compound 29, 7-[3-(2,4-DICHLOROPHENYL)PROPOXY]-2,3-DIHYDRO-1H-3b,8-DIAZOCYCLOPENTA[a]indene MMONOHYDROCHLORIDE] | 700 nM | 80 nM
15 | CCOC(=O)c1c(C)nc2c(OCC3(c4ccccc4)CC3)cccn12 [Compound 30, ETHYL 2-METHYL-8-[(1-PHENYL-CYCLOPROPYL)METHOXY]IMIDAZO[1,2-α]PYRIDINE-3-CARBOXYLATE MMONOHYDROCHLORIDE] | 1000 nM | 2000 nM
